The values that follow come from ChEMBL document CHEMBL5143664, “New synthetic phenylquinazoline derivatives induce apoptosis by targeting the pro-survival members of the BCL-2 family” (Bioorg Med Chem Lett, 2022).

Type in all cases: functional, cell-based
Assay [1] deals with MCF7. Kind of assay: Antiproliferative activity against human MCF7 cells assessed as reduction in cell viability at 15 uM after 24 hrs by MTT assay relative to control. (Tetrazolium assays rely on reduction of a dye to a coloured formazan, in cell work by metabolically active cells.)
Assay [2] concerns MCF7. Kind of assay: Antiproliferative activity against human cisplatin resistant human MCF7-CR cells assessed as reduction in cell viability at 15 uM after 24 hrs by MTT assay relative to control.
In assay [3] the test system is MCF7. Briefly: Antiproliferative activity against cisplatin-resistant human MCF7-CR cells assessed as reduction in cell viability after 24 hrs by MTT assay. The settings on record: MCF7, 24 h.
In assay [4] the test system is MCF7. Kind of assay: Antiproliferative activity against cisplatin-resistant human MCF7-CR cells cultured as 3D-spheroids assessed as reduction in cell viability at 5 to 25 uM after 24 hrs by alamar blue assay. Conditions: dose 5-25 µM, DDE = dose-dependent effect.
Assay [5] deals with MCF7. Briefly: Induction of cell death in human MCF7 cells assessed as reduction in cell volume at 10 uM after 24 hrs.
The test system of assay [6] is MCF7. Briefly: Antiproliferative activity against human MCF7 cells assessed as reduction in cell viability after 24 hrs by MTT assay. The settings on record: MCF7, 24 h.
In assay [7] the test system is MCF7. Briefly: Induction of cell death in cisplatin-resistant human MCF7-CR cells assessed as reduction in cell volume at 10 uM after 24 hrs.
Assay [8] relates to MCF7. Kind of assay: Induction of cell death in human MCF7 cells assessed as round cell morphology at 10 uM after 24 hrs.
Assay [9] relates to MCF7. Kind of assay: Induction of cell death in cisplatin-resistant human MCF7-CR cells assessed as round cell morphology at 10 uM after 24 hrs.
Assay [10] concerns MCF7. Briefly: Inhibition of colony formation in human MCF7 cells at 5 to 25 uM after 7 days. Conditions: dose 5-25 µM, time 7.0 day, DDE = dose-dependent effect.
Assay [11] concerns MCF7. Briefly: Inhibition of colony formation in cisplatin-resistant human MCF7-CR cells at 5 to 25 uM after 7 days. Conditions: dose 5-25 µM, time 7.0 day, DDE = dose-dependent effect.
The test system of assay [12] is MCF7. Kind of assay: Antiproliferative activity against human MCF7 cells cultured as 3D-spheroids assessed as reduction in cell viability at 5 to 25 uM after 24 hrs by alamar blue assay. The settings on record: dose 5-25 µM, DDE = dose-dependent effect. Background: The colour change of resazurin is a common sign of viable cells or microbes.
For assay [13], the system named is MCF7. Briefly: Antiproliferative activity against human MCF7 cells transfected with empty vector assessed as reduction in cell viability after 24 hrs by MTT assay. The settings on record: MCF7, 24 h.
In assay [14] the test system is MCF7. Kind of assay: Antiproliferative activity against human MCF7 cells transfected with MBR C3 vector assessed as reduction in cell viability after 24 hrs by MTT assay. The settings on record: MCF7, 24 h.
Assay [15] has as its system MCF7. Briefly: Antiproliferative activity against human MCF7 cells transfected with BCLXL C5 vector assessed as reduction in cell viability after 24 hrs by MTT assay. Conditions: MCF7, 24 h.
Assay [16] concerns MCF7. Briefly: Antiproliferative activity against cisplatin-resistant human MCF7-CR cells transfected with empty vector assessed as reduction in cell viability after 24 hrs by MTT assay. Conditions: MCF7, 24 h.
The subject of assay [17] is MCF7. Briefly: Antiproliferative activity against cisplatin-resistant human MCF7-CR cells transfected with MBR C2 vector assessed as reduction in cell viability after 24 hrs by MTT assay. Conditions: MCF7, 24 h.
For assay [18], the system named is MCF7. Kind of assay: Antiproliferative activity against cisplatin-resistant human MCF7-CR cells transfected with MBR C3 vector assessed as reduction in cell viability after 24 hrs by MTT assay. Conditions: MCF7, 24 h.
The subject of assay [19] is MCF7. Briefly: Synergistic antiproliferative activity against cisplatin-resistant human MCF7-CR cells assessed as reduction in cell viability in presence of cisplatin after 24 hrs by MTT assay. The settings on record: MCF7, 24 h.
For assay [20], the system named is MCF7. Briefly: Synergistic antiproliferative activity against cisplatin-resistant human MCF7-CR cells assessed as reduction in cell viability in presence of taxol after 24 hrs by MTT assay. The settings on record: MCF7, 24 h.
The subject of assay [21] is MCF7. Briefly: Synergistic antiproliferative activity against cisplatin-resistant human MCF7-CR cells assessed as reduction in cell viability in presence of ABT737 after 24 hrs by MTT assay. The settings on record: MCF7, 24 h.
Assay [22] relates to MCF7. Kind of assay: Induction of apoptosis in cisplatin-resistant human MCF7-CR cells assessed as decrease in BCL2 protein expression at 5 to 25 uM after 16 hrs by western blot analysis. The settings on record: dose 5-25 µM, DDE = dose-dependent effect.
The test system of assay [23] is MCF7. Kind of assay: Induction of apoptosis in cisplatin-resistant human MCF7-CR cells assessed as decrease in BCLXL protein expression at 5 to 25 uM after 16 hrs by western blot analysis. The settings on record: dose 5-25 µM.
Assay [24] has as its system MCF7. Briefly: Induction of apoptosis in cisplatin-resistant human MCF7-CR cells assessed as increase in release of cytochrome C in cytosol expression at 10 to 25 uM after 16 hrs by western blot analysis. The settings on record: dose 10-25 µM, DDE = dose-dependent effect. (In western blotting, separated proteins are transferred to a membrane and probed.)

Molecules are shown by their SMILES. The source made the active and inactive calls. The calls are words filed in the database; no cut-off is given here.

Consider `CCOc1cc(-c2nc(-c3ccccc3)c3cc(Cl)ccc3n2)ccc1OC`, for which the outcome with MCF7 [1] and in the assay on MCF7 [2] was Active.

One may read the EC50 as the concentration needed to bring the measured effect to its halfway point. Turning to `CN(C)CC[C@H](CSc1ccccc1)Nc1ccc(S(=O)(=O)NC(=O)c2ccc(N3CCN(Cc4ccccc4-c4ccc(Cl)cc4)CC3)cc2)cc1[N+](=O)[O-]` [ABT 737], the EC50 in the assay with MCF7 [3] amounted to 4.39 µM.

As for `Oc1ccccc1-c1nc(-c2ccccc2)c2cc(Cl)ccc2n1`, the Activity entry in the assay with MCF7 [4], with MCF7 [10], in the assay with MCF7 [11], with MCF7 [12], with MCF7 [22] and in the assay on MCF7 [24] was “Dde” in each case. The outcome in the assay on MCF7 [1], in the assay with MCF7 [5], with MCF7 [2], in the assay with MCF7 [7], with MCF7 [8] and in the assay on MCF7 [9] was Active. Besides, the outcome with MCF7 [23] was Active. In addition, the EC50 with MCF7 [6] stood at 6.3 µM; with MCF7 [3], 21.4 µM; in the assay on MCF7 [13] it was 14.2 µM; in the assay on MCF7 [14], 3.03 µM; in the assay on MCF7 [15], 10.2 µM; in the assay on MCF7 [16], 29.4 µM. Besides, the EC50 was determined as 5.73 µM in the assay with MCF7 [17]; 6.31 µM in the assay with MCF7 [18]; 9.12 µM in the assay on MCF7 [19]; 3.55 µM with MCF7 [20]; 0.53 µM with MCF7 [21].

Regarding `CC(=O)O[C@H]1C(=O)[C@@]2(C)[C@H]([C@H](OC(=O)c3ccccc3)[C@]3(O)C[C@H](OC(=O)[C@H](O)[C@@H](NC(=O)c4ccccc4)c4ccccc4)C(C)=C1C3(C)C)[C@]1(OC(C)=O)CO[C@@H]1C[C@@H]2O` [PACLITAXEL], the EC50 in the assay on MCF7 [3] was 44.7 µM.

Regarding `Fc1cc(-c2nc(-c3ccccc3)c3cc(Cl)ccc3n2)ccc1Br`, the Activity entry in the assay with MCF7 [4], in the assay on MCF7 [10], with MCF7 [11], in the assay with MCF7 [12], with MCF7 [22] and in the assay on MCF7 [24] was “Dde” throughout. Besides, the outcome in the assay on MCF7 [1], in the assay on MCF7 [5], in the assay on MCF7 [2], in the assay with MCF7 [7], in the assay with MCF7 [8] and in the assay on MCF7 [9] was Active. In the assay with MCF7 [23], the outcome was Active. For the same molecule, the EC50 came to 5.02 µM in the assay on MCF7 [6]; 5.44 µM with MCF7 [3]; 8.62 µM in the assay with MCF7 [13]; 2.96 µM in the assay with MCF7 [14]; 6.87 µM in the assay on MCF7 [15]; 22.4 µM in the assay on MCF7 [16]. For the same molecule, the EC50 in the assay on MCF7 [17] was 5.04 µM; in the assay with MCF7 [18], 5.19 µM; in the assay on MCF7 [19], 4.89 µM; in the assay with MCF7 [20], 1.23 µM; with MCF7 [21], 0.29 µM.

As to `CCCCOc1ccc(-c2nc(-c3ccccc3)c3cc(Cl)ccc3n2)cc1`, the outcome with MCF7 [1] and in the assay with MCF7 [2] was Active.

Regarding `CC(C)(C)c1ccc(-c2nc(-c3ccccc3)c3cc(Cl)ccc3n2)cc1`, the outcome in the assay with MCF7 [1] and with MCF7 [2] was Active.

Turning to `COc1ccc(-c2nc(-c3ccccc3)c3cc(Cl)ccc3n2)c(F)c1`, the outcome in the assay with MCF7 [1] and with MCF7 [2] was Active.

Take `Oc1cccc(-c2nc(-c3ccccc3)c3cc(Cl)ccc3n2)c1O`: the result in the assay with MCF7 [1] and with MCF7 [2] was Active.

Turning to `Cc1ccc(-c2nc(-c3ccccc3)c3cc(Cl)ccc3n2)cc1`, the outcome with MCF7 [1] and with MCF7 [2] was Active.

In the case of `CCOc1ccc(-c2nc(-c3ccccc3)c3cc(Cl)ccc3n2)cc1`, the outcome in the assay on MCF7 [1] and in the assay on MCF7 [2] was Active.

For `FC(F)(F)c1ccc(-c2nc(-c3ccccc3)c3cc(Cl)ccc3n2)cc1`, the result in the assay on MCF7 [1] and in the assay on MCF7 [2] was Active.
